Some results are limits rather than exact numbers.

This passage reports IC50 results from patent US12662491B2 (Redona Therapeutics, Inc., priority 2020, dated 2026).

The first experiment addresses T1, Zcchc11 enzyme (Homo sapiens, UniProt Q5TAX3).
T1 construct: made in house; host or cells: HEK293 cells (Zcchc11); E. coli Rosetta II (LIN28A)
T1 sequence (Q5TAX3 212-1420): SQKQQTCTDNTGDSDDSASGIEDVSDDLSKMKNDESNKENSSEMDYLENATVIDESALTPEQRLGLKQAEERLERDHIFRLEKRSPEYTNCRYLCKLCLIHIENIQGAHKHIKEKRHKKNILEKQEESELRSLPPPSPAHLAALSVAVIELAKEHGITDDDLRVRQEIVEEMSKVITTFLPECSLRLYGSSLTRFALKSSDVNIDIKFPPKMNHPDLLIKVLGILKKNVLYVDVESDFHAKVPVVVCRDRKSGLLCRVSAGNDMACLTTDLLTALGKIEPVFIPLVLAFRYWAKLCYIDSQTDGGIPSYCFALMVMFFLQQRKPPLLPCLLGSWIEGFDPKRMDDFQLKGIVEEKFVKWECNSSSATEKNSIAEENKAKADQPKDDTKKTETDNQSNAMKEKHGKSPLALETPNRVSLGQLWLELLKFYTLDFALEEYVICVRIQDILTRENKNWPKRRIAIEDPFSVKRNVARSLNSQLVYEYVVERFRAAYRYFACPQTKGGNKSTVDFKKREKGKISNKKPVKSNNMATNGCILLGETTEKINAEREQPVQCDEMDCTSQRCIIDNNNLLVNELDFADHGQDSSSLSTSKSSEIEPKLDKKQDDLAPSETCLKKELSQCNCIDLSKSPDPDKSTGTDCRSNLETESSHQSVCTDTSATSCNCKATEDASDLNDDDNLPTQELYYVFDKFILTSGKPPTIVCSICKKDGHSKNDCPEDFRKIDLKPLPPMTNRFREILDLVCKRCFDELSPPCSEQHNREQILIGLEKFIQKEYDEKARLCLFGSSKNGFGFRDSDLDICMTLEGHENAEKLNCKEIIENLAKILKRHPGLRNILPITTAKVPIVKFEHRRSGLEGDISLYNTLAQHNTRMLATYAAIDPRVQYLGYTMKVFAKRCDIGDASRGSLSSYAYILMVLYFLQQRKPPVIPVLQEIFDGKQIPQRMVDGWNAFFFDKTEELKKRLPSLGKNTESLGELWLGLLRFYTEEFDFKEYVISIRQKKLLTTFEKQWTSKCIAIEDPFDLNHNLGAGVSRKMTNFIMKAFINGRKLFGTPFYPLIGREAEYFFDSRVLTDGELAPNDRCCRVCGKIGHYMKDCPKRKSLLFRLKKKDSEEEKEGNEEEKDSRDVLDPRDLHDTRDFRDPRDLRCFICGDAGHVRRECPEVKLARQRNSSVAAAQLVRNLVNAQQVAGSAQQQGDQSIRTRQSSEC
The experiment is described as follows: TUTase assay (Zcchc11 assay, Lin28a-dependent polyuridylation of pre-let-7). The following applies: LIN28A 10 nM, Zcchc11 0.2 nM, 5′-fluorescein pre-let-7 miRNA 2 nM, UTP 5 uM, room temperature, 30 minutes pre-incubation; read-out: Potency Lin28a-dep Z11 IC50. It counts as biochemical. In outline: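 Potency is measured as inhibition of LIN28A-driven U-tail addition to 2 nM pre-let-7 by 0.2 nM HEK293-derived Zcchc11 fragment with 5 uM UTP at room temperature. Tail growth appears as fluorescein quenching by an annealing rhodamine-A20 probe.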
As for `O=C(O)c1cn(-c2cc3n(n2)CCOC3)c2cc(N3CCC[C@@H]3COc3ncccc3Cl)c(Cl)cc2c1=O` [Example 76, (R)-6-chloro-7-(2-(((3-chloropyridin-2-yl)oxy)methyl)pyrrolidin-1-yl)-1-(6,7-dihydro-4H-pyrazolo[5,1-c][1,4]oxazin-2-yl)-4-oxo-1,4-dihydroquinoline-3-carboxylic acid], the IC50 – broadly, the concentration at which inhibition is half-maximal – was no more than 1000 nM. Still for that read-out and setting: for `CN(C)C1CN(c2ccc(-n3cc(C(=O)O)c(=O)c4cc(Cl)c(N5CC(C6CCC6)C[C@@H]5COc5ncccc5Cl)cc43)cn2)C1` (stereo partly drawn) [Example 63, 6-chloro-7-((2R)-2-(((3-chloropyridin-2-yl)oxy)methyl)-4-cyclobutylpyrrolidin-1-yl)-1-(6-(3-(dimethylamino)azetidin-1-yl)pyridin-3-yl)-4-oxo-1,4-dihydroquinoline-3-carboxylic acid] the value was no more than 1000 nM; for `CCS(=O)(=O)Nc1ccc(-n2cc(C(=O)O)c(=O)c3cc(Cl)c(N4CCC[C@@H]4COc4ncccc4Cl)cc32)cc1` [Example 31, (R)-6-chloro-7-(2-(((3-chloropyridin-2-yl)oxy)methyl)pyrrolidin-1-yl)-1-(4-(ethylsulfonamido)phenyl)-4-oxo-1,4-dihydroquinoline-3-carboxylic acid], no more than 1000 nM. Same read-out and setting: the same measure for `C[C@H]1CCN(c2cc3c(cc2Cl)c(=O)c(C(=O)O)cn3-c2ccc(N3CC(N(C)C)C3)nc2)[C@H]1COc1ncccc1Cl` (racemic) [Example 44, rac-6-chloro-7-((2R,3S)-2-(((3-chloropyridin-2-yl)oxy)methyl)-3-methylpyrrolidin-1-yl)-1-(6-(3-(dimethylamino)azetidin-1-yl)pyridin-3-yl)-4-oxo-1,4-dihydroquinoline-3-carboxylic acid]: no more than 1000 nM; for `O=C(O)c1cn(-c2cnccn2)c2nc(N3CCC[C@@H]3COc3ncccc3Cl)c(Cl)cc2c1=O` [Example 19, (R)-6-chloro-7-(2-(((3-chloropyridin-2-yl)oxy)methyl)pyrrolidin-1-yl)-4-oxo-1-(pyrazin-2-yl)-1,4-dihydro-1,8-naphthyridine-3-carboxylic acid]: no more than 1000 nM.

The same experiment, now with this note: Lin28a-dependent Zcchc11 (Z11) TUTase activity; read-out: Potency Lin28a-dep Z11 IC50.
For `N#Cc1cc2c(=O)c(C(=O)O)cn(-c3ccc(N)nc3)c2cc1N1CCC[C@@H]1COc1ncccc1F` [Compound 217], the IC50 was no more than 1000 nM. Still for that read-out and setting: the same measure for `Cc1cccnc1OC[C@H]1CCCN1c1cc2c(cc1C#N)c(=O)c(C(=O)O)cn2-c1cnn(C)c1` [Compound 248, 6-cyano-1-(1-methylpyrazol-4-yl)-7-[(2R)-2-[[(3-methylpyridin-2-yl)oxy]methyl]pyrrolidin-1-yl]-4-oxoquinoline-3-carboxylic acid]: no more than 1000 nM; for `O=C(O)c1cn(-c2ccc(Cl)cc2)c2cc(N3CCC[C@@H]3COc3ccccn3)c(F)cc2c1=O` [Compound 145, (R)-1-(4-chlorophenyl)-6-fluoro-4-oxo-7-(2-((pyridin-2-yloxy)methyl)pyrrolidin-1-yl)-1,4-dihydro-quinoline-3-carboxylic acid]: no more than 1000 nM; for `CN(C)C1CN(c2ccc(-n3cc(C(=O)O)c(=O)c4cc(Cl)c(N5CCC[C@@H]5COc5cnccc5Cl)cc43)cn2)C1` [Compound 320, 6-Chloro-7-[(2R)-2-[[(4 chloropyridin-3-yl)oxy]methyl]pyrrolidin-1-yl]-1-[6-[3-(dimethyl-amino)azetidin-1-yl]pyridin-3-yl]-4-oxoquinoline-3-carboxylic acid]: no more than 1000 nM.

For the molecule `CN(C)C1CN(c2ccc(-n3cc(C(=O)O)c(=O)c4cc(Cl)c(N5CCC(C)(C)[C@@H]5COc5ncccc5Cl)cc43)cn2)C1` [Compound 351, (R)-6-chloro-7-(2-(((3-chloropyridin-2-yl)oxy)methyl)-3,3-dimethyl-pyrrolidin-1-yl)-1-(6-(3-(dimethyl-amino)azetidin-1-yl)pyridin-3-yl)-4-oxo-1,4-dihydro-quinoline-3-carboxylic acid], the IC50 was no more than 1000 nM. Take `COc1ccc(COc2ccc(-n3cc(C(=O)O)c(=O)c4cc(F)c(N5CCC[C@@H]5COc5cccnn5)cc43)c(F)c2)cc1` [Compound 138, (R)-6-fluoro-1-(2-fluoro-4-((4-methoxy-benzyl)oxy)phenyl)-4-oxo-7-(2-((pyridazin-3-yloxy)methyl)pyrrolidin-1-yl)-1,4-dihydro-quinoline-3-carboxylic acid]: the IC50 is no more than 1000 nM. Same read-out and setting: for `Nc1ccc(-n2cc(C(=O)O)c(=O)c3cc(Cl)c(N4CCC[C@@H]4COc4ncccc4F)cc32)cn1` [Compound 214, 1-(6-Aminopyridin-3-yl)-6-chloro-7-[(2R)-2-{[(3-fluoropyridin-2-yl)oxy]methyl}pyrrolidin-1-yl]-4-oxoquinoline-3-carboxylic acid] the value was no more than 1000 nM.

Staying with this experiment, now noted: Lin28a-dependent Zcchc11 (Z11) TUTase assay; read-out: Potency Lin28a-dep Z11 IC50.
As to `Cn1ccnc1OC[C@H]1CCCN1c1cc2c(cc1Cl)c(=O)c(C(=O)O)cn2-c1ccc(N2CCC2)nc1` [Example 501, (R)-1-(6-(azetidin-1-yl)pyridin-3-yl)-6-chloro-7-(2-(((1-methyl-1H-imidazol-2-yl)oxy)methyl)pyrrolidin-1-yl)-4-oxo-1,4-dihydroquinoline-3-carboxylic acid], the IC50 is no more than 1000 nM. Take `CN1CCC(n2cc(C(=O)O)c(=O)c3cc(Cl)c(N4CCC[C@@H]4COc4ncccc4Cl)cc32)CC1` [Example 462, (R)-6-chloro-7-(2-(((3-chloropyridin-2-yl)oxy)methyl)pyrrolidin-1-yl)-1-(1-methyl-piperidin-4-yl)-4-oxo-1,4-dihydro-quinoline-3-carboxylic acid]: the IC50 was 1000 to 10000 nM.

For the molecule `CN(C)c1ccc(-n2cc(C(=O)O)c(=O)c3cc(Cl)c(N4CCC[C@@H]4COc4ncccc4Cl)cc32)cn1` [Example 421, (R)-6-chloro-7-(2-(((3-chloropyridin-2-yl)oxy)methyl)pyrrolidin-1-yl)-1-(6-(dimethyl-amino)pyridin-3-yl)-4-oxo-1,4-dihydroquinoline-3-carboxylic acid], the IC50 is no more than 1000 nM. On the same count and under the same terms, for `CN(C)C1CN(c2ccc(-n3cc(C(=O)O)c(=O)c4cc(Cl)c(N5CCC[C@H]5COc5ncccc5Cl)cc43)cn2)C1` [Example 517, (S)-6-chloro-7-(2-(((3-chloropyridin-2-yl)oxy)methyl)pyrrolidin-1-yl)-1-(6-(3-(dimethylamino)azetidin-1-yl)pyridin-3-yl)-4-oxo-1,4-dihydroquinoline-3-carboxylic acid] the value was no more than 1000 nM. For the molecule `COc1ccc(Cl)c(OC[C@H]2CC(C)(C)CN2c2cc3c(cc2Cl)c(=O)c(C(=O)O)cn3-c2ccc(N3CC(N(C)C)C3)nc2)n1` [Example 648, (R)-6-chloro-7-(2-(((3-chloro-6-methoxypyridin-2-yl)oxy)methyl)-4,4-dimethylpyrrolidin-1-yl)-1-(6-(3-(dimethylamino)azetidin-1-yl)pyridin-3-yl)-4-oxo-1,4-dihydroquinoline-3-carboxylic acid], the IC50 is no more than 1000 nM. On the same count and under the same terms, the same measure for `O=C(O)c1cn(Cc2ccccn2)c2cc(N3CCC[C@@H]3COc3ncccc3Cl)c(Cl)cc2c1=O` [Example 576, (R)-6-chloro-7-(2-(((3-chloropyridin-2-yl)oxy)methyl)pyrrolidin-1-yl)-4-oxo-1-(pyridin-2-ylmethyl)-1,4-dihydroquinoline-3-carboxylic acid]: no more than 1000 nM; for `Cc1cc(C)cc(-n2cc(C(=O)O)c(=O)c3cc(F)c(N4CCC[C@@H]4COc4ccccn4)cc32)c1` [Example 389, (R)-1-(3,5-dimethylphenyl)-6-fluoro-4-oxo-7-(2-((pyridin-2-yloxy)methyl)pyrrolidin-1-yl)-1,4-dihydroquinoline-3-carboxylic acid]: 1000 to 10000 nM.
